Data set [1] has as its system A375, A431, A549, MRC-5 cells. Briefly: Photocytotoxicity assay, summary across cell lines. Format: cell-based.
Data set [2] can be described thus: Solubility in demineralized water. The class given is physicochemical. The following applies: read-out: maximum solubility.
Another data set has as its system tubulin. The following applies: polymerization enhancer control.

The values below come from patent US10781226B2, “Photoactivatable cancer prodrug” (Texas State University, priority 2017, dated 2020).

In brackets after ≈: the same amount, converted by molar mass.

Source text for tubulin: Raw fluorescence was normalized by initial fluorescence for each sample. Samples consists of the caged drug (not irradiated), the caged drug irradiated with green light, and the caged drug irradiated with blue light.
In this assay, increased fluorescence indicates tubulin polymerization.

In turn, `[NH2][Pt]([NH2])([Cl])[Cl]` [CDDP, cisplatin] displayed an EC50 in data set [1] (range across all tested cell lines) of 850 to 3060 nM.
For `F[P-](F)(F)(F)(F)F.F[P-](F)(F)(F)(F)F.O.[Ru+2].c1ccc(-c2cccc(-c3ccccn3)n2)nc1.c1ccc(-c2ccccn2)nc1` [[3](PF6)2], the “activity across all tested cell lines” value in data set [1] (all tested cell lines) is on record as “no activity”.
Turning to `CSCCCc1nc(=O)c2c(-c3ccccc3)c(C(=O)c3ccccc3)[nH]c2[nH]1` [compound 1], the solubility in data set [2] worked out at 10 µM (≈ 4.04 µg/mL).
Take `CC(=O)O[C@H]1C(=O)[C@@]2(C)[C@H]([C@H](OC(=O)c3ccccc3)[C@]3(O)C[C@H](OC(=O)[C@H](O)[C@@H](NC(=O)c4ccccc4)c4ccccc4)C(C)=C1C3(C)C)[C@]1(OC(C)=O)CO[C@@H]1C[C@@H]2O` [paclitaxel, reference compound]: the tubulin polymerization entry in the data set on tubulin is reported as “induces rapid polymerization of tubulin”.
